Measurements as given in US12227487B1, “Acyloxy substituted phenyl dithiane derivatives” (Renovel Innovations, Inc, priority 2021, dated 2025).

How the values were obtained:
[1] = target: T1, COX-2 enzyme (Homo sapiens, UniProt P35354); experiment: COX-2 enzyme inhibition; type: biochemical; details: FIG. 3A
T1 sequence (P35354 18-604): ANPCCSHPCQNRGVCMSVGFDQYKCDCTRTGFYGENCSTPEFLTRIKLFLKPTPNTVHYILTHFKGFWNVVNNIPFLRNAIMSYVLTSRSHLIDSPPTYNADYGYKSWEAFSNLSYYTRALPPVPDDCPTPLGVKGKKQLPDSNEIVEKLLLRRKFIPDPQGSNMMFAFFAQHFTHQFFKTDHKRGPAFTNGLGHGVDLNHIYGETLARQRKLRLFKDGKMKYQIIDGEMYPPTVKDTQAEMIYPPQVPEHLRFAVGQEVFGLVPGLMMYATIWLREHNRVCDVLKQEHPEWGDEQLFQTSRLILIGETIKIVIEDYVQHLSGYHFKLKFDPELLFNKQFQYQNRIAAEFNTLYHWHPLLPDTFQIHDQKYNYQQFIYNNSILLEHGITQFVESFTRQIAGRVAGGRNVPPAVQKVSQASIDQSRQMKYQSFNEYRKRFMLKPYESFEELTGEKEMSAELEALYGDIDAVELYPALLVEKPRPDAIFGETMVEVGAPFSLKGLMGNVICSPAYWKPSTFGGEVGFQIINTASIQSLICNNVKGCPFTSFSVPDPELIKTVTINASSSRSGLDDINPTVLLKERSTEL

[2] = target: COX-1 enzyme (Homo sapiens, UniProt P23219); experiment: COX-1 enzyme inhibition; type: biochemical; details: FIG. 3A
COX-1 enzyme, sequence (P23219 24-599): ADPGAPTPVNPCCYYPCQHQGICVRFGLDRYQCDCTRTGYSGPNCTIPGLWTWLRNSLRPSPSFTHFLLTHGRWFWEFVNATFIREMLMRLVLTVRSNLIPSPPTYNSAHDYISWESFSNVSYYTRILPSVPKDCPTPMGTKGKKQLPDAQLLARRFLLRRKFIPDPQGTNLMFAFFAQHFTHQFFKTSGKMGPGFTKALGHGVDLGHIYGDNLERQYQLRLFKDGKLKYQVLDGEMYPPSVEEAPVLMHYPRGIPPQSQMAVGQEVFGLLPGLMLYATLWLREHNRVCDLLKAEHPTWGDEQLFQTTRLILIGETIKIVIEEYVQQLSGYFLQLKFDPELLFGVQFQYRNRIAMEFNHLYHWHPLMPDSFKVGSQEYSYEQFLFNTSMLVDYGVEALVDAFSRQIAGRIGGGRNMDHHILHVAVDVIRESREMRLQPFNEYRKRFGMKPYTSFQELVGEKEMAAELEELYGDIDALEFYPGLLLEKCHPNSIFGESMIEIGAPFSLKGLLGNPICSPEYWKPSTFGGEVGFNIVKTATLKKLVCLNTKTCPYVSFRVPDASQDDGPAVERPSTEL

[3] = system: IL-6; experiment: IL-6 level in LPS treated mice; type: in vivo; details: compared to the control LPS group
[4] = system: TNF-α; experiment: TNF-α level in Lipopolysaccharide (LPS) treated mice; type: in vivo; details: compared to the control Lipopolysaccharide (LPS) group
[5] = system: mice; experiment: Disease Activity Index in DSS mice, 21 day study; type: in vivo; details: end of study period of 21 days, compared with the vehicle DSS group, P<0.04

reduction of COX-2 enzyme activity [1] [%] | reduction of COX-1 enzyme activity [2] [%] | Structure (SMILES) | decrease of IL-6 [3] [%] | decrease of TNF-α [4] [%] | decrease in Disease Activity Index [5] [%]
45 | 38 | CC/C=C\CC(=O)Oc1ccc(Br)cc1C1SCCCS1 [compound 1, (Z)-4-bromo-2-(1,3-dithian-2-yl)phenyl hex-3-enoate] | 19 | 53 | 23
 |  | COc1cc(C2SCCCS2)ccc1OC(=O)/C=C/c1ccccc1 [compound 2, 4-(1,3-dithian-2-yl)-2-methoxyphenyl cinnamate] |  | 26 | 
